Measurements as given in patent publication US7115611B2, “Phenyl derivatives, their manufacture and use as pharmaceutical agents” (Hoffmann-la Roche Inc., priority 2003, dated 2006).

melting point | SMILES
149 to 151 °C | Cc1cc(OCc2ccc(-c3ccc(OC(F)(F)F)cc3)nc2C)ccc1OC(C)(C)C(=O)O [Example 39, 2-Methyl-2-{2-methyl-4-[2-methyl-6-(4-trifluoromethoxy-phenyl)-pyridin-3-ylmethoxy]-phenoxy}-propionic acid]
187 to 188 °C (dec.) | Cc1cc(OCc2cnc(-c3ccc(C(F)(F)F)nc3)nc2CCO)ccc1OC(C)(C)C(=O)O [Example 103, 2-{4-[4-(2-Hydroxy-ethyl)-2-(6-trifluoromethyl-pyridin-3-yl)-pyrimidin-5-ylmethoxy]-2-methyl-phenoxy}-2-methyl-propionic acid]
146 to 148 °C | Cc1cc(OCc2ccc(-c3ccc(OC(F)(F)F)cc3)nc2)ccc1OC(C)(C)C(=O)O [Example 10, 2-Methyl-2-{2-methyl-4-[6-(4-trifluoromethoxy-phenyl)-pyridin-3-ylmethoxy]-phenoxy}-propionic acid]
214 to 215 °C (dec.) | Cc1c(OCc2cnc(-c3ccc(C(F)(F)F)cc3)nc2C2CC2)ccc(OC(C)(C)C(=O)O)c1C [Example 106, 2-{4-[4-Cyclopropyl-2-(4-trifluoromethyl-phenyl)-pyrimidin-5-ylmethoxy]-2,3-dimethyl-phenoxy}-2-methyl-propionic acid]
115 to 117 °C | Cc1cc(SC(C)c2ccc(-c3ccc(C(F)(F)F)cc3)nc2C)ccc1OCC(=O)O (racemic) [Example 17, [rac]-(2-Methyl-4-{1-[2-methyl-6-(4-trifluoromethyl-phenyl)-pyridin-3-yl]-ethylsulfanyl}-phenoxy)-acetic acid]
191 to 192 °C | Cc1cc(OCc2ccc(-c3ccc(C(F)(F)F)cc3)nn2)ccc1OC(C)(C)C(=O)O [Example 44, 2-Methyl-2-{2-methyl-4-[6-(4-trifluoromethyl-phenyl)-pyridazin-3-ylmethoxy]-phenoxy]-propionic acid]
122 to 124 °C (dec.) | CCOCCc1nc(-c2ccc(C(F)(F)F)nc2)ncc1COc1ccc(OC(C)(C)C(=O)O)c(C)c1 [Example 101, 2-{4-[4-(2-Ethoxy-ethyl)-2-(6-trifluoromethyl-pyridin-3-yl)-pyrimidin-5-ylmethoxy]-2-methyl-phenoxy}-2-methyl-propionic acid]
72 to 73 °C | COCCCc1cc(N(C)Cc2ccc(-c3ccc(C(F)(F)F)cc3)nc2C)ccc1OCC(=O)O [Example 1, (2-(3-Methoxy-propyl)-4-{methyl-[2-methyl-6-(4-trifluoromethyl-phenyl)-pyridin-3-ylmethyl]-amino}-phenoxy)-acetic acid]
175 to 176 °C | Cc1cc(OCc2ccc(-c3ccc(C(F)(F)F)c(F)c3)nc2C)ccc1OC(C)(C)C(=O)O [Example 38, 2-{4-[6-(3-Fluoro-4-trifluoromethyl-phenyl)-2-methyl-pyridin-3-ylmethoxy]-2-methyl-phenoxy}-2-methyl-propionic acid]
199 °C | Cc1cc(N(C)Cc2ccc(-c3ccc(C(F)(F)F)cc3)nc2)ccc1OCC(=O)O [Example 15, (2-Methyl-4-{methyl-[6-(4-trifluoromethyl-phenyl)-pyridin-3-ylmethyl]-amino}-phenoxy)-acetic acid]
129 to 131 °C | Cc1cc(SCc2cnc(-c3ccc(C(F)(F)F)cc3)nc2C2CC2)ccc1OC(C)(C)C(=O)O [Example 144, 2-{4-[4-Cyclopropyl-2-(4-trifluoromethyl-phenyl)-pyrimidin-5-ylmethylsulfanyl]-2-methyl-phenoxy}-2-methyl-propionic acid]

Continued, molecule first:

SMILES | melting point
Cc1cc(OCc2cnc(-c3ccc(OC(F)(F)F)cc3)cc2Cl)ccc1OC(C)(C)C(=O)O [Example 109, 2-{4-[4-Chloro-6-(4-trifluoromethoxy-phenyl)-pyridin-3-ylmethoxy]-2-methyl-phenoxy}-2-methyl-propionic acid] | 179 to 181 °C (dec.)
Cc1cc(OCc2ccc(-c3ccc(F)c(C(F)(F)F)c3)nc2C)ccc1OC(C)(C)C(=O)O [Example 24, 2-{4-[6-(4-Fluoro-3-trifluoromethyl-phenyl)-2-methyl-pyridin-3-ylmethoxy]-2-methyl-phenoxy}-2-methyl-propionic acid] | 141 to 143 °C
Cc1cc(OCc2cnc(-c3ccc(C(F)(F)F)cc3)cc2C(F)(F)F)ccc1OC(C)(C)C(=O)O [Example 108, 2-Methyl-2-{2-methyl-4-[4-trifluoromethyl-6-(4-trifluoromethyl-phenyl)-pyridin-3-ylmethoxy]-phenoxy}-propionic acid] | 148 to 149 °C
COCCc1nc(-c2ccc(C(F)(F)F)nc2)ncc1COc1ccc(OC(C)(C)C(=O)O)c(C)c1 [Example 102, 2-{4-[4-(2-Methoxy-ethyl)-2-(6-trifluoromethyl-pyridin-3-yl)-pyrimidin-5-ylmethoxy]-2-methyl-phenoxy}-2-methyl-propionic acid] | 140.5 to 141.5 °C (dec.)
COCc1nc(-c2ccc(C(F)(F)F)cc2)ccc1COc1ccc(OC(C)(C)C(=O)O)c(C)c1 [Example 45, 2-{4-[2-Methoxymethyl-6-(4-trifluoromethyl-phenyl)-pyridin-3-ylmethoxy]-2-methyl-phenoxy}-2-methyl-propionic acid] | 121 to 122 °C
COCCCc1cc(N(C)Cc2ccc(-c3ccc(OC(F)(F)F)cc3)nc2)ccc1OCC(=O)O [Example 14, (2-(3-Methoxy-propyl)-4-{methyl-[6-(4-trifluoromethoxy-phenyl)-pyridin-3-ylmethyl]-amino}-phenoxy)-acetic acid] | 73 to 75 °C
Cc1cc(SCc2cnc(-c3ccc(OC(F)(F)F)cc3)nc2C2CC2)ccc1OC(C)(C)C(=O)O [Example 142, 2-{4-[4-Cyclopropyl-2-(4-trifluoromethoxy-phenyl)-pyrimidin-5-ylmethylsulfanyl]-2-methyl-phenoxy}-2-methyl-propionic acid] | 127 to 128 °C (dec.)
CC(C)(Oc1ccc(OCc2cnc(-c3ccc(C(F)(F)F)cc3)nc2C2CC2)c(F)c1)C(=O)O [Example 141, 2-{4-[4-Cyclopropyl-2-(4-trifluoromethyl-phenyl)-pyrimidin-5-ylmethoxy]-3-fluoro-phenoxy}-2-methyl-propionic acid] | 177.5 to 178 °C
Cc1cc(OCc2ccc(-c3ccc(C(F)(F)F)cc3)nc2C)ccc1OC(C)(C)C(=O)O [Example 34, 2-Methyl-2-{2-methyl-4-[2-methyl-6-(4-trifluoromethyl-phenyl)-pyridin-3-ylmethoxy]-phenoxy}-propionic acid] | 164 to 165 °C
COCc1nc(-c2ccc(C(F)(F)F)cc2)ncc1COc1ccc(OC(C)(C)C(=O)O)c(C)c1 [Example 104, 2-{4-[4-Methoxymethyl-2-(4-trifluoromethyl-phenyl)-pyrimidin-5-ylmethoxy]-2-methyl-phenoxy}-2-methyl-propionic acid] | 120 to 121 °C
Cc1cc(N(C)Cc2ccc(-c3ccc(Cl)cc3)nc2)ccc1OCC(=O)O [Example 12, (4-{[6-(4-Chloro-phenyl)-pyridin-3-ylmethyl]-methyl-amino}-2-methyl-phenoxy)-acetic acid] | 174 to 176 °C
Cc1cc(OCc2cnc(-c3ccc(C(F)(F)F)nc3)nc2C2CC2)ccc1OC(C)(C)C(=O)O [Example 105, 2-{4-[4-Cyclopropyl-2-(6-trifluoromethyl-pyridin-3-yl)-pyrimidin-5-ylmethoxy]-2-methyl-phenoxy}-2-methyl-propionic acid] | 185 to 185.5 °C
Cc1cc(N(C)Cc2ccc(-c3ccc(OC(F)(F)F)cc3)nc2)ccc1OCC(=O)O [Example 13, (2-Methyl-4-{methyl-[6-(4-trifluoromethoxy-phenyl)-pyridin-3-ylmethyl]-amino}-phenoxy)-acetic acid] | 137 to 138 °C
CCC(Sc1ccc(OCC(=O)O)c(C)c1)c1ccc(-c2ccc(C(F)(F)F)cc2)nc1C (racemic) [Example 18, [rac]-(2-Methyl-4-{1-[2-methyl-6-(4-trifluoromethyl-phenyl)-pyridin-3-yl]-propylsulfanyl}-phenoxy)-acetic acid] | 126 to 128 °C
Cc1cc(N(C)Cc2ccc(-c3ccc(C(F)(F)F)cc3)nc2C)cc(C)c1OCC(=O)O [Example 7, (2,6-Dimethyl-4-{methyl-[2-methyl-6-(4-trifluoromethyl-phenyl)-pyridin-3-ylmethyl]-amino}-phenoxy)-acetic acid] | 137 to 138 °C
COCCc1nc(-c2ccc(C(F)(F)F)cc2)ncc1COc1ccc(OC(C)(C)C(=O)O)c(C)c1 [Example 140, 2-{4-[4-(2-Methoxy-ethyl)-2-(4-trifluoromethyl-phenyl)-pyrimidin-5-ylmethoxy]-2-methyl-phenoxy}-2-methyl-propionic acid] | 119.5 to 120 °C
Cc1cc(OCc2cnc(-c3ccc(C(F)(F)F)cc3)nc2C(F)(F)F)ccc1OC(C)(C)C(=O)O [Example 107, 2-Methyl-2-{2-methyl-4-[4-trifluoromethyl-2-(4-trifluoromethyl-phenyl)-pyrimidin-5-ylmethoxy]-phenoxy}-propionic acid] | 149 to 151 °C (dec.)
Cc1cc(OCc2ccc(-c3ccc(C(F)(F)F)cc3)nc2)ccc1OC(C)(C)C(=O)O [Example 9, 2-Methyl-2-{2-methyl-4-[6-(4-trifluoromethyl-phenyl)-pyridin-3-ylmethoxy]-phenoxy}-propionic acid] | 149 to 151 °C
COCCCc1cc(N(C)Cc2ccc(-c3ccc(C(F)(F)F)cc3)nc2)ccc1OCC(=O)O [Example 16, (2-(3-Methoxy-propyl)-4-{methyl-[6-(4-trifluoromethyl-phenyl)-pyridin-3-ylmethyl]-amino}-phenoxy)-acetic acid] | 72 to 76 °C
Cc1cc(OCc2cnc(-c3ccc(OC(F)(F)F)cc3)nc2C(F)(F)F)ccc1OC(C)(C)C(=O)O [Example 111, 2-Methyl-2-{2-methyl-4-[2-(4-trifluoromethoxy-phenyl)-4-trifluoromethyl-pyrimidin-5-ylmethoxy]-phenoxy}-propionic acid] | 153.5 to 154.5 °C
Cc1cc(OCc2ccc(-c3ccc(OC(F)(F)F)cc3)nc2C2CC2)ccc1OC(C)(C)C(=O)O [Example 145, 2-{4-[2-Cyclopropyl-6-(4-trifluoromethoxy-phenyl)-pyridin-3-ylmethoxy]-2-methyl-phenoxy}-2-methyl-propionic acid] | 131 to 133 °C
